From ChEMBL document CHEMBL1158301, “Isolation of guaianoid pigments from the gorgonian Calicogorgia granulosa” (1996)

Legend:
Format in all cases: functional
Conditions in all cases: read-out: IZ
Candida albicans = assay: Antimicrobial activity against Candida albicans at 25 ug/mL by paper disk assay
Escherichia coli = assay: Antimicrobial activity against Escherichia coli at 25 ug/mL by paper disk assay
Bacillus subtilis = assay: Antimicrobial activity against Bacillus subtilis at 25 ug/mL by paper disk assay

| SMILES | zone of inhibition at 25 µg/mL (Candida albicans) [mm] | zone of inhibition at 25 µg/mL (Escherichia coli) [mm] | zone of inhibition at 25 µg/mL (Bacillus subtilis) [mm] |
| --- | --- | --- | --- |
| Cc1cc(-c2cc(C)c3cc(C(C)C)ccc(C)c2-3)c2c(C)ccc(C(C)C)cc1-2 | 5 | 3 | 8 |
| Cc1cc(Cc2cc(C)c3cc(C(C)C)ccc(C)c2-3)c2c(C)ccc(C(C)C)cc1-2 | – | 3 | 3 |
